Where a SMILES comes first, the peptide text is derived from it.
Columns and labels:
rats = assay: Apomorphine induced stereotyped sniffing; format: in vivo; conditions: for (Stereotyped) sniffing: after 1 h apomorphine 250 μg/kg s.c., tested 20 min later, measured for 4 min
Description: Subcutaneous treatment of rats with apomorphine (250 μg/kg) elicits hyperlocomotion and especially stereotyped sniffing behavoir. Increase of this stereotyped sniffing by pretreatment with the drug to be tested in considered to be an indication for dopaminergic activity.
Groups of rats were subcutaneously injected with placebo (0.5 ml saline), (2-9)-α-endorfine (50 μg) or (3-9)-α-endorfine (50 μg) and after 1 h. with apomorphine (250 μg/kg). An additional group of rats received two placebo (0.5 ml saline) injections. Twenty minutes after the last injection the rats were tested in a small open field and the duration of stereotyped sniffing was measured for 4 min.

[1] = tested on: AVP (arg-vasopressin) levels of eye plexus plasma; assay: Vasopressin release: AVP levels of eye plexus plasma (RIA); format: in vivo, Female Wistar rats; conditions: 10 μg per rat subcutaneously
Description: The effect of (2-9)-α-endorfine on AVP (arg-vasopressin) levels of eye plexus plasma was tested.
Female Wistar rats (140-160 g) were anaesthetized with ether for a strictly controlled period of 45 seconds. Samples of eye plexus blood were taken and stored in cooled plastic tubes to which heparin was added. The tubes were centrifuged at 4° C. in order to obtain the plasma. The immunoreactive AVP was directly measured in 20 μl of eye plexus plasma with the aid of RIA (radio-immuno-assay) methods.
The rats were treated with placebo or with 10 μg of (2-9)-α-endorfine per rat, injected subcutaneously.

[2] = pole-jumping test; delaying extinction of conditioned avoidance behavior; Pharmac. Ther. 16, 67, 1982; cited from earlier work

SMILES	(Stereotyped) sniffing (rats; placebo (0.5 ml saline) pretreatment)	AVP levels ([1]; 2 minutes after injection)	AVP levels ([1]; 5 minutes after injection)	AVP levels ([1]; 10 minutes after injection)	(Stereotyped) sniffing (rats; pretreatment 50 μg s.c.)	potentiation of apomorphine-induced stereotyped sniffing (rats; pretreatment 50 μg, apomorphine 250 μg/kg s.c.)	times less active than α-endorfine [2]
CN1CCc2cccc3c2[C@H]1Cc1ccc(O)c(O)c1-3 [apomorphine, reference compound]	121.4 s						
CSCC[C@H](NC(=O)[C@H](Cc1ccccc1)NC(=O)CNC(=O)CN)C(=O)N[C@H](C(=O)N[C@@H](CO)C(=O)N[C@@H](CCC(=O)O)C(=O)N[C@@H](CCCCN)C(=O)O)[C@@H](C)O [(2-9)-α-endorfine, H-Gly-Gly-L-Phe-L-Met-L-Thr-L-Ser-L-Glu-L-Lys-OH] (H-GGFMTSEK-OH)		667 pg/mL	92 pg/mL	78 pg/mL	158.0 s	potentiated	10 times

— US4593017A, “Methods of treating patients using a pharmaceutical preparation containing an α-endorfine fragment” (Akzo N.V., priority 1982, dated 1986)
